Results: patent US8546320B2, “Hsp9O-targeted anti-cancer chimeric peptide” (Kyoto University, priority 2008, dated 2013)
Where a SMILES comes first, the peptide text is derived from it.

Columns and labels:
Caki-1 = format: cell-based, human; conditions: Caki-1; for Anti-cancer activity (% relative to wild-type peptide) / Decrease in cell survival rate (% relative to wild-type peptide): wild-type peptide = 100%
U937 = test: cells; format: cell-based, human; conditions: for Anti-cancer activity (% relative to wild-type peptide) / Decrease in cell survival rate (% relative to wild-type peptide): wild-type peptide = 100%
Procedure: A total of 3×10^3 cells per well were inoculated onto a 96 well plate, and incubated in a medium containing 10% FBS with 100 μl of a peptide diluted stepwise at 37° C. for 48 to 72 hours. The survival rate of the cells was measured by using WST-8 solution (Cell Count Reagent SF; Nacalai Tesque, Inc.).

cancer cells = test: Cell viability assay, summary statements on cancer cells; format: cell-based; conditions: single mutation in TPR or Antp region of Antp-TPR

Row | Compound | Anti-cancer activity (% relative to wild-type peptide) (Caki-1) | Decrease in cell survival rate (% relative to wild-type peptide) (Caki-1) | Cell Survival Rate (%) (U937) | Anti-cancer activity (% relative to wild-type peptide) (U937; U937) | Decrease in cell survival rate (% relative to wild-type peptide) (U937; U937) | effect compared with the wild-type protein (summary of mutations) (cancer cells) | killing effect compared with the wild-type peptide (Caki-1) | killing effect compared with the wild-type peptide (U937; U937)
1 | CC[C@H](C)[C@H](NC(=O)[C@H](CCCCN)NC(=O)[C@H](C)NC(=O)[C@H](Cc1ccc(O)cc1)NC(=O)[C@H](C)NC(=O)[C@H](CCCCN)NC(=O)[C@H](CCCCN)NC(=O)[C@H](CCCCN)NC(=O)[C@H](Cc1c[nH]c2ccccc12)NC(=O)[C@H](CCCCN)NC(=O)[C@H](CCSC)NC(=O)[C@H](CCCNC(=N)N)NC(=O)[C@H](CCCNC(=N)N)NC(=O)[C@H](CC(N)=O)NC(=O)[C@H](CCC(N)=O)NC(=O)[C@H](Cc1ccccc1)NC(=O)[C@H](Cc1c[nH]c2ccccc12)NC(=O)[C@@H](NC(=O)[C@H](CCCCN)NC(=O)[C@@H](NC(=O)[C@H](CCC(N)=O)NC(=O)[C@@H](N)CCCNC(=N)N)[C@@H](C)CC)[C@@H](C)CC)C(=O)NCC(=O)N[C@@H](CC(N)=O)C(=O)N[C@@H](CO)C(=O)N[C@@H](Cc1ccc(O)cc1)C(=O)N[C@@H](Cc1ccccc1)C(=O)N[C@@H](CCCCN)C(=O)O [Antp-R5K] (H-RQIKIWFQNRRMKWKKKAYAKIGNSYFK-OH; N-terminus and C-terminus assumed) | 6.58% | 11.34% | 92.57% | 9.68% | 25.10% | effective but with a lower effect than the wild-type protein |  | 
2 | CC[C@H](C)[C@H](NC(=O)[C@H](CCCNC(=N)N)NC(=O)[C@H](C)NC(=O)[C@H](CC(C)C)NC(=O)[C@H](C)NC(=O)[C@H](CCCCN)NC(=O)[C@H](CCCCN)NC(=O)[C@H](CCCCN)NC(=O)[C@H](Cc1c[nH]c2ccccc12)NC(=O)[C@H](CCCCN)NC(=O)[C@H](CCSC)NC(=O)[C@H](CCCNC(=N)N)NC(=O)[C@H](CCCNC(=N)N)NC(=O)[C@H](CC(N)=O)NC(=O)[C@H](CCC(N)=O)NC(=O)[C@H](Cc1ccccc1)NC(=O)[C@H](Cc1c[nH]c2ccccc12)NC(=O)[C@@H](NC(=O)[C@H](CCCCN)NC(=O)[C@@H](NC(=O)[C@H](CCC(N)=O)NC(=O)[C@@H](N)CCCNC(=N)N)[C@@H](C)CC)[C@@H](C)CC)C(=O)NCC(=O)N[C@@H](CC(N)=O)C(=O)N[C@@H](CO)C(=O)N[C@@H](Cc1ccc(O)cc1)C(=O)N[C@@H](Cc1ccccc1)C(=O)N[C@@H](CCCCN)C(=O)O [Antp-Y3L] (H-RQIKIWFQNRRMKWKKKALARIGNSYFK-OH; N-terminus and C-terminus assumed) | 52.87% | 20.23% | 60.94% | 50.89% | 38.14% | effective but with a lower effect than the wild-type protein |  | 
3 | CC[C@H](C)[C@H](NC(=O)[C@H](CCCNC(=N)N)NC(=O)CNC(=O)[C@H](Cc1ccc(O)cc1)NC(=O)[C@H](C)NC(=O)[C@H](CCCCN)NC(=O)[C@H](CCCCN)NC(=O)[C@H](CCCCN)NC(=O)[C@H](Cc1c[nH]c2ccccc12)NC(=O)[C@H](CCCCN)NC(=O)[C@H](CCSC)NC(=O)[C@H](CCCNC(=N)N)NC(=O)[C@H](CCCNC(=N)N)NC(=O)[C@H](CC(N)=O)NC(=O)[C@H](CCC(N)=O)NC(=O)[C@H](Cc1ccccc1)NC(=O)[C@H](Cc1c[nH]c2ccccc12)NC(=O)[C@@H](NC(=O)[C@H](CCCCN)NC(=O)[C@@H](NC(=O)[C@H](CCC(N)=O)NC(=O)[C@@H](N)CCCNC(=N)N)[C@@H](C)CC)[C@@H](C)CC)C(=O)NCC(=O)N[C@@H](CC(N)=O)C(=O)N[C@@H](CO)C(=O)N[C@@H](Cc1ccc(O)cc1)C(=O)N[C@@H](Cc1ccccc1)C(=O)N[C@@H](CCCCN)C(=O)O [Antp-A4G] (H-RQIKIWFQNRRMKWKKKAYGRIGNSYFK-OH; N-terminus and C-terminus assumed) | 108.40% | 333.52% | 11.42% | 115.40% | 203.46% | effect higher than the wild-type protein | stronger than that of the wild-type peptide | 
4 | CC[C@H](C)[C@H](NC(=O)[C@H](CCCNC(=N)N)NC(=O)[C@H](C)NC(=O)[C@H](Cc1ccc(O)cc1)NC(=O)[C@H](C)NC(=O)[C@H](CCCCN)NC(=O)[C@H](CCCCN)NC(=O)[C@H](CCCCN)NC(=O)[C@H](Cc1c[nH]c2ccccc12)NC(=O)[C@H](CCCCN)NC(=O)[C@H](CCSC)NC(=O)[C@H](CCCNC(=N)N)NC(=O)[C@H](CCCNC(=N)N)NC(=O)[C@H](CC(N)=O)NC(=O)[C@H](CCC(N)=O)NC(=O)[C@H](Cc1ccccc1)NC(=O)[C@H](Cc1c[nH]c2ccccc12)NC(=O)[C@@H](NC(=O)[C@H](CCCCN)NC(=O)[C@@H](NC(=O)[C@H](CCC(N)=O)NC(=O)[C@@H](N)CCCNC(=N)N)[C@@H](C)CC)[C@@H](C)CC)C(=O)NCC(=O)N[C@@H](CC(N)=O)C(=O)N[C@@H](Cc1ccc(O)cc1)C(=O)N[C@@H](Cc1ccc(O)cc1)C(=O)N[C@@H](Cc1ccccc1)C(=O)N[C@@H](CCCCN)C(=O)O [Antp-S9Y] (H-RQIKIWFQNRRMKWKKKAYARIGNYYFK-OH; N-terminus and C-terminus assumed) | 106.80% | 232.05% | 12.73% | 113.69% | 182.60% | effect higher than the wild-type protein | stronger than that of the wild-type peptide | increase in effect
5 | CC[C@H](C)[C@H](NC(=O)[C@H](CCCNC(=N)N)NC(=O)[C@H](C)NC(=O)[C@H](Cc1ccc(O)cc1)NC(=O)[C@H](C)NC(=O)[C@H](CCCNC(=N)N)NC(=O)[C@H](CCCCN)NC(=O)[C@H](CCCCN)NC(=O)[C@H](Cc1c[nH]c2ccccc12)NC(=O)[C@H](CCCCN)NC(=O)[C@H](CCSC)NC(=O)[C@H](CCCNC(=N)N)NC(=O)[C@H](CCCNC(=N)N)NC(=O)[C@H](CC(N)=O)NC(=O)[C@H](CCC(N)=O)NC(=O)[C@H](Cc1ccccc1)NC(=O)[C@H](Cc1c[nH]c2ccccc12)NC(=O)[C@@H](NC(=O)[C@H](CCCCN)NC(=O)[C@@H](NC(=O)[C@H](CCC(N)=O)NC(=O)[C@@H](N)CCCNC(=N)N)[C@@H](C)CC)[C@@H](C)CC)C(=O)NCC(=O)N[C@@H](CC(N)=O)C(=O)N[C@@H](CO)C(=O)N[C@@H](Cc1ccc(O)cc1)C(=O)N[C@@H](Cc1ccccc1)C(=O)N[C@@H](CCCCN)C(=O)O [Antp-K1R] (H-RQIKIWFQNRRMKWKKRAYARIGNSYFK-OH; N-terminus and C-terminus assumed) | 35.81% | 15.70% | 91.39% | 11.22% | 25.43% | effective but with a lower effect than the wild-type protein |  | 
